Test [1] concerns the target Ribosomal protein S6 kinase beta-1 (Homo sapiens, UniProt P23443).
Test [2] has as its target DNA topoisomerase 2-alpha (Homo sapiens, UniProt P11388).
Test [3] deals with T1, AarF domain-containing protein kinase 1 (Homo sapiens, UniProt Q86TW2).
T1 sequence (Q86TW2 whole entry): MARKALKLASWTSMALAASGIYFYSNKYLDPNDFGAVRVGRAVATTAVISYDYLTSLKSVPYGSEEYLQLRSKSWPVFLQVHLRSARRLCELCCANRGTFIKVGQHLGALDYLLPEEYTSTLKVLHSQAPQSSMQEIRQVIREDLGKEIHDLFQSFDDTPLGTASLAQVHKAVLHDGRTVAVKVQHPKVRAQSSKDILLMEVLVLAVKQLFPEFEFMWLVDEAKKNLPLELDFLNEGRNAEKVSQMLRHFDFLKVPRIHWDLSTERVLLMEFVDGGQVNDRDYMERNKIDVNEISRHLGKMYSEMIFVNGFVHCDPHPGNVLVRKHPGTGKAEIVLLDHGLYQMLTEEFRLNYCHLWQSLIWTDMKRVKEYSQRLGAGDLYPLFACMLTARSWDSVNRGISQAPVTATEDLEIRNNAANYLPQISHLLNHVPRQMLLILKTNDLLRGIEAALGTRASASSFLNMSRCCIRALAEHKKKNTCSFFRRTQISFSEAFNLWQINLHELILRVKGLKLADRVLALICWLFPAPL

Test [4] addresses Cyclin-dependent kinase 3 (Homo sapiens, UniProt Q00526).
Test [5] deals with Fibroblast growth factor receptor 1 (Homo sapiens, UniProt P11362).
Sequence of Fibroblast growth factor receptor 1 (P11362 whole entry, canonical isoform): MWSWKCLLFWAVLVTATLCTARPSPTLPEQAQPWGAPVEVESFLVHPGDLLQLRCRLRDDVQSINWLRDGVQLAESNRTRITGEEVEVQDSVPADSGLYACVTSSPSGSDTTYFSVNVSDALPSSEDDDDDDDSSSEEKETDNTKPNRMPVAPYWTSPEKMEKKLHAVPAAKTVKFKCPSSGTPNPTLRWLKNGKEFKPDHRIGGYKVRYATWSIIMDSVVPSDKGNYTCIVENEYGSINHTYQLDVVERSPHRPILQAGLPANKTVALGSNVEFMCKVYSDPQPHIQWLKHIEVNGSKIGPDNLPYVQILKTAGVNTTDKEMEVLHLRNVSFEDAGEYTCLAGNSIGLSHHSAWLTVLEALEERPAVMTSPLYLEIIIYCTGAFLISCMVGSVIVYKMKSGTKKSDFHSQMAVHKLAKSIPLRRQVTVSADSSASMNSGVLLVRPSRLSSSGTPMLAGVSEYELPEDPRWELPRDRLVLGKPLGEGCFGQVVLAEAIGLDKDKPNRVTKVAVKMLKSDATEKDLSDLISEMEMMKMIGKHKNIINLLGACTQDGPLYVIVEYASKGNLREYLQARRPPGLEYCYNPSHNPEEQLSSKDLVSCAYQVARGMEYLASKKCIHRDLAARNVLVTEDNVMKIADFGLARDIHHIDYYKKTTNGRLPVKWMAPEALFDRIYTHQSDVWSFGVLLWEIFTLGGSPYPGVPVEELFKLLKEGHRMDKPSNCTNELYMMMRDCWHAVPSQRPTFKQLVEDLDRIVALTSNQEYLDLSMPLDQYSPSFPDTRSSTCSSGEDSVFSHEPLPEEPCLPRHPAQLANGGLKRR
The target of test [6] is T2, Phosphorylase b kinase gamma catalytic chain, liver/testis isoform (Homo sapiens, UniProt P15735).
T2 sequence (P15735 whole entry): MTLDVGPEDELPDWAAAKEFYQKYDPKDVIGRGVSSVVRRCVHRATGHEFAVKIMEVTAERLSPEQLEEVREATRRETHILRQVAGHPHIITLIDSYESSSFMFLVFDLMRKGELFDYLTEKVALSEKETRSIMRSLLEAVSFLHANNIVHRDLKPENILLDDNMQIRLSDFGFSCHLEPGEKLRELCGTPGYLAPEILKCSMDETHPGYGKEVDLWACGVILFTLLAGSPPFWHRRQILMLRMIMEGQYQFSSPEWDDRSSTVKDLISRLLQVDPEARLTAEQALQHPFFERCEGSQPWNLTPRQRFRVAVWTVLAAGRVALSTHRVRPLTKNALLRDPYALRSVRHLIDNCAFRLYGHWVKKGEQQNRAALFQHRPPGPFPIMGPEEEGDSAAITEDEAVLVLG

In another test the target is T3, Ephrin type-A receptor 1 (Homo sapiens, UniProt P21709).
T3 sequence (P21709 whole entry): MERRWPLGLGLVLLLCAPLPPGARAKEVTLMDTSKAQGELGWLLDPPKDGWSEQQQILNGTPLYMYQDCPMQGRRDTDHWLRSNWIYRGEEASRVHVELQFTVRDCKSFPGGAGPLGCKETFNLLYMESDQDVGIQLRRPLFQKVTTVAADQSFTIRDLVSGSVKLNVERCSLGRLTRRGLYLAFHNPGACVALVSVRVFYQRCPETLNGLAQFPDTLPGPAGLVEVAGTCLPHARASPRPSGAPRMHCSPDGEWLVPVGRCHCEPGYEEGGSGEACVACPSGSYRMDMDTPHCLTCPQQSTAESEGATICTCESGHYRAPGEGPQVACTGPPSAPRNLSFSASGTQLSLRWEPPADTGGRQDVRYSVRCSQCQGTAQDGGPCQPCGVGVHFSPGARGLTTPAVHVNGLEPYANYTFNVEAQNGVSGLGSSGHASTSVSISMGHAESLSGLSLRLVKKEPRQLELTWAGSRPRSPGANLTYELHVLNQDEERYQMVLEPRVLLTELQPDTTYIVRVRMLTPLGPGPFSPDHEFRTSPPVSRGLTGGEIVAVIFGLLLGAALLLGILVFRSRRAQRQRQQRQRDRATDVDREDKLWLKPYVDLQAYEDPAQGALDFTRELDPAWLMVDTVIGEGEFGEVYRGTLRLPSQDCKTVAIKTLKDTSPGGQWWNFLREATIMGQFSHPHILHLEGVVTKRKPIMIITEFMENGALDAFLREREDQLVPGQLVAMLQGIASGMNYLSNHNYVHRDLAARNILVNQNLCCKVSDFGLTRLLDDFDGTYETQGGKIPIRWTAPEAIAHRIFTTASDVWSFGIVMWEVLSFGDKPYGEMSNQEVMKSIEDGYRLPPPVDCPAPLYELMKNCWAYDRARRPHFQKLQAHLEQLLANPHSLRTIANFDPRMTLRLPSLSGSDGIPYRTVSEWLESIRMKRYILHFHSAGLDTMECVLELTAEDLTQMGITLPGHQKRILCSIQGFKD

Test [7] has as its target Casein kinase I isoform alpha (Homo sapiens, UniProt P48729).

Molecules are shown by their SMILES. Structures can show the parent of a compound that is named as a salt. Activity calls are given as the source filed them. Rule as the data show it, for most assays here: actives have a measured Kd and inactives only a lower limit. Some results are limits rather than exact numbers.
Also: in the data inactive means no Kd found up to 30 µM.

Sequence of Casein kinase I isoform alpha (P48729 whole entry, canonical isoform): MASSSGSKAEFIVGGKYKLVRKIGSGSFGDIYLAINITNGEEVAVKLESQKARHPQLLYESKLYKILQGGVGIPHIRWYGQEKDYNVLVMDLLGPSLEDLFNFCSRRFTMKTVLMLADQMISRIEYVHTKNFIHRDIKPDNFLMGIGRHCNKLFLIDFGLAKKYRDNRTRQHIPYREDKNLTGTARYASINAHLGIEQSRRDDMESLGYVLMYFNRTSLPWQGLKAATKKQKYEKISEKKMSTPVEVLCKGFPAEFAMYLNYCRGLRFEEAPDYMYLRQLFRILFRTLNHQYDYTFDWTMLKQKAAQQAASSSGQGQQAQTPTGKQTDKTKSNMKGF
Sequence of Cyclin-dependent kinase 3 (Q00526 whole entry): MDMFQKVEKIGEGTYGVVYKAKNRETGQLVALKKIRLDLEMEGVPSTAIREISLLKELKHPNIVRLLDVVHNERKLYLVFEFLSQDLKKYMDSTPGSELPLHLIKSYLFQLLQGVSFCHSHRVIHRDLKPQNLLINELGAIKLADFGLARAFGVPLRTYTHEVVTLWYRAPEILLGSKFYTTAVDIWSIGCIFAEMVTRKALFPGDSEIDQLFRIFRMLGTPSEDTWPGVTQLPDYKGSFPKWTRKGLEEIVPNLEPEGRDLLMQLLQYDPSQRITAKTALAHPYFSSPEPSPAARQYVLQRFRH
Sequence of Ribosomal protein S6 kinase beta-1 (P23443 whole entry): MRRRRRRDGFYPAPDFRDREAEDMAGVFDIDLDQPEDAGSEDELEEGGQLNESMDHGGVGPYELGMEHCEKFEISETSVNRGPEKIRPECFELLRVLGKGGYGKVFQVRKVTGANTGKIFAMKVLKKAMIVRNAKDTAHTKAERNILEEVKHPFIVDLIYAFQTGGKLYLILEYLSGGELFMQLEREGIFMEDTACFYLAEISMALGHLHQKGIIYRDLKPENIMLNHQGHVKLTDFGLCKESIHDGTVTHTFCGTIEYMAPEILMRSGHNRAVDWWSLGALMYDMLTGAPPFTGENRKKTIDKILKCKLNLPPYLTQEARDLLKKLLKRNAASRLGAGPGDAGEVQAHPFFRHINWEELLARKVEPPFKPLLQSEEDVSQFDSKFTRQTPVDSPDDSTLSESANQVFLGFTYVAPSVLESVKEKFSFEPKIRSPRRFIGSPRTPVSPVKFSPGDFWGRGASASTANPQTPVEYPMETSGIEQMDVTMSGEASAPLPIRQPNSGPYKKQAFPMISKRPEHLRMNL
Sequence of DNA topoisomerase 2-alpha (P11388 whole entry, the tested form may be a part): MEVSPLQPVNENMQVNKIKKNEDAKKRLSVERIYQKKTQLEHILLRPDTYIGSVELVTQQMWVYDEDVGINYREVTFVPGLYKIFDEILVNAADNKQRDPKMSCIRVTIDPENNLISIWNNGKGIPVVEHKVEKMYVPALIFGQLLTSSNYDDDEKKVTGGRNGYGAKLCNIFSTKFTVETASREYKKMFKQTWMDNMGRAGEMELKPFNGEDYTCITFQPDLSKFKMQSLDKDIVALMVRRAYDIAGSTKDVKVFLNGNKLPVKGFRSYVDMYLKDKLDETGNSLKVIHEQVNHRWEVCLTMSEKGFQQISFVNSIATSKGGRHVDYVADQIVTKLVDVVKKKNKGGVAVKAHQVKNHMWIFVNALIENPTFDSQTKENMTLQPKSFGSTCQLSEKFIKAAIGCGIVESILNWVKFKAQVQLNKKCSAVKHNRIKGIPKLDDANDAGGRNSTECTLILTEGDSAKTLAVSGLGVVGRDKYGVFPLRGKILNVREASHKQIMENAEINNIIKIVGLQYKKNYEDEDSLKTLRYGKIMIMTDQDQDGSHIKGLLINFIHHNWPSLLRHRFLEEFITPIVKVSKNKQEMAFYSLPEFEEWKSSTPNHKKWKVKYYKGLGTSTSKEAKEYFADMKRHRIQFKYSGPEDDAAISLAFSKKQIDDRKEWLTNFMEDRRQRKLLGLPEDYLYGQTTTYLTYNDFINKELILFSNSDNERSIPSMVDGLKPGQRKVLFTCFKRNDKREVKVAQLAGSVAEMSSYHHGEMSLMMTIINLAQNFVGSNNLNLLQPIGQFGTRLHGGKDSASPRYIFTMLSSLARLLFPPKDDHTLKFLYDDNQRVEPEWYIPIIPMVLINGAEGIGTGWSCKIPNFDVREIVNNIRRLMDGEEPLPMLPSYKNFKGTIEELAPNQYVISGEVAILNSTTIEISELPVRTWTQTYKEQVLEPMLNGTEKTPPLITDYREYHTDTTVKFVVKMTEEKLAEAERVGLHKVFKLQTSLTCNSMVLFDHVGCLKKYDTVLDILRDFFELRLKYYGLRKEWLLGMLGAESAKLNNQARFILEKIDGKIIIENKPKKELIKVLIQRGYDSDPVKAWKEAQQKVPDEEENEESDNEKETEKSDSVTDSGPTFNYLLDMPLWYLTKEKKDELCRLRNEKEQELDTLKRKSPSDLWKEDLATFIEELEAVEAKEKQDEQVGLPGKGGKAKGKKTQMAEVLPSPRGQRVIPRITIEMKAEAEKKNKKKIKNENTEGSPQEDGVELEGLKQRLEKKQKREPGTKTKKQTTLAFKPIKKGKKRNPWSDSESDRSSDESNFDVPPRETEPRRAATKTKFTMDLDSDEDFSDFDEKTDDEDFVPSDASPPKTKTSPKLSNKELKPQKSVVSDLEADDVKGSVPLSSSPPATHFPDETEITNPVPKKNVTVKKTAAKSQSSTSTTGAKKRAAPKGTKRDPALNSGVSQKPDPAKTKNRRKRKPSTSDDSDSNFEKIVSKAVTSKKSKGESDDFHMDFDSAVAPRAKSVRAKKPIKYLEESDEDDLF

In the case of `C[C@@H](Oc1cc(C(=O)Nc2ccc(C(=O)N3CCN(C)CC3)cc2)nnc1N)c1c(Cl)ccc(F)c1Cl`, the Kd in test [1], in test [2], in test [3], in test [4], in test [5] and in test [6] was > 30 µM (inactive) throughout. The Kd (at Ephrin type-A receptor 1; in test [7]) was > 30 µM (inactive) throughout.
`CC(=O)c1cnc2ccc(-c3cc(Cl)c(O)c(Cl)c3)nc2c1N[C@H]1CC[C@H](CN(C)C)CC1`: the Kd – broadly, the equilibrium constant for the complex coming apart – was > 30 µM (inactive) in test [1]; > 30 µM (inactive) in test [2]; > 30 µM (inactive) in test [3]; > 30 µM (inactive) in test [4]; > 30 µM (inactive) in test [5]; 0.397 µM (active) in test [6]. Also, the dissociation constant Kd on Ephrin type-A receptor 1 was 0.091 µM (active); in test [7], 0.931 µM (active).
Regarding `CCNC(=O)C#Cc1ccc2c(c1)NC(=O)/C2=C(\Nc1ccc(CN(C)C)cc1)c1ccccc1`, the Kd in test [1] was > 30 µM (inactive); in test [2], > 30 µM (inactive); in test [3] it was > 30 µM (inactive); in test [4] it was 0.897 µM (active); in test [5] it was 2.51 µM (active); in test [6], > 30 µM (inactive). Moreover, the Kd (at Ephrin type-A receptor 1; in test [7]) was > 30 µM (inactive) each time.
`C=CC(=O)N1CCC[C@H](n2c(=O)n(-c3ccc(Oc4ccccc4)cc3)c3c(N)ncnc32)C1`: the Kd in test [1], in test [2], in test [3], in test [4], in test [5] and in test [6] was > 30 µM (inactive) each time. For the same molecule, the Kd (on Ephrin type-A receptor 1; in test [7]) was > 30 µM (inactive) throughout.
For `COCc1c(-c2ccc(NC(=O)Nc3cc(C(F)(F)F)ccc3F)c(F)c2)c2c(N)ncnn2c1CN1CCOCC1`, the Kd is > 30 µM (inactive) in test [1]; > 30 µM (inactive) in test [2]; > 30 µM (inactive) in test [3]; > 30 µM (inactive) in test [4]; 0.04 µM (active) in test [5]; > 30 µM (inactive) in test [6]. Also, the Kd (at Ephrin type-A receptor 1; in test [7]) was > 30 µM (inactive) in each case.
For the molecule `Cc1nc(NC(=O)N2CCC[C@H]2C(N)=O)sc1-c1ccnc(C(C)(C)C(F)(F)F)c1` [ALPELISIB], the Kd in test [1], in test [2], in test [3], in test [4], in test [5] and in test [6] was > 30 µM (inactive) throughout. For the same molecule, the Kd (on Ephrin type-A receptor 1; in test [7]) was > 30 µM (inactive) throughout.
Regarding `C=CC(=O)Nc1cc2c(Nc3ccc(F)c(Cl)c3)ncnc2cc1C#CC(C)(C)N1CCN(C)CC1` [AV-412 FREE BASE], the Kd in test [1], in test [2], in test [3], in test [4], in test [5] and in test [6] was > 30 µM (inactive) in each case. In addition, the Kd (at Ephrin type-A receptor 1; in test [7]) was > 30 µM (inactive) in each case.
Regarding `COc1cc([C@@H]2c3cc4c(cc3[C@H](O)[C@H]3COC(=O)[C@@H]23)OCO4)cc(OC)c1OC` [AXL-1717], the Kd in test [1] is > 30 µM (inactive); in test [2] it was 0.486 µM; in test [3], > 30 µM (inactive); in test [4] it was > 30 µM (inactive); in test [5], > 30 µM (inactive); in test [6] it was > 30 µM (inactive). Further, the Kd (at Ephrin type-A receptor 1; in test [7]) was > 30 µM (inactive) throughout.
In the case of `Cn1cnc2c(F)c(Nc3ccc(Br)cc3F)c(C(=O)NOCCO)cc21` [BINIMETINIB], the Kd in test [1], in test [2], in test [3], in test [4], in test [5] and in test [6] was > 30 µM (inactive) each time. Besides, the Kd (on Ephrin type-A receptor 1; in test [7]) was > 30 µM (inactive) throughout.
On to `COc1cc2ncnc(Oc3cccc(NC(=O)Nc4cc(C(C)(C)C(F)(F)F)on4)c3)c2cc1OC` [CEP-32496], for which the Kd in test [1], in test [2], in test [3], in test [4], in test [5] and in test [6] was > 30 µM (inactive) each time. Moreover, the Kd (at Ephrin type-A receptor 1; in test [7]) was > 30 µM (inactive) in each case.
Regarding `Cc1cc(Nc2ncc(Cl)c(Nc3ccccc3S(=O)(=O)C(C)C)n2)c(OC(C)C)cc1C1CCNCC1` [CERITINIB], the Kd in test [1], in test [2], in test [3], in test [4], in test [5] and in test [6] was > 30 µM (inactive) in each case. Also, the Kd (at Ephrin type-A receptor 1; in test [7]) was > 30 µM (inactive) each time.
Regarding `COCC(=O)NC/C=C/c1ccc2ncnc(Nc3ccc(Oc4ccc(C)nc4)c(C)c3)c2c1` [CP-724714], the Kd in test [1], in test [2], in test [3], in test [4], in test [5] and in test [6] was > 30 µM (inactive) in each case. The Kd (on Ephrin type-A receptor 1; in test [7]) was > 30 µM (inactive) in each case.
In the case of `C#Cc1cccc(Nc2ncnc3cc(OC)c(OCCCCCCC(=O)NO)cc23)c1` [CUDC-101], the Kd in test [1], in test [2], in test [3], in test [4], in test [5] and in test [6] was > 30 µM (inactive) in each case. Further, the Kd (on Ephrin type-A receptor 1; in test [7]) was > 30 µM (inactive) each time.
Regarding `CCS(=O)(=O)N1CCN(c2ccc(Nc3ncc(C(N)=O)c(NC4CC4)n3)cc2)CC1` [Cerdulatinib Hydrochloride], the Kd in test [1], in test [2], in test [3], in test [4], in test [5] and in test [6] was > 30 µM (inactive) in each case. The Kd (on Ephrin type-A receptor 1; in test [7]) was > 30 µM (inactive) in each case.
Turning to `COc1ccc(S(=O)(=O)N(C(C)=O)c2ccccc2/C=C/c2cc[n+]([O-])cc2)cc1` [HMN-214], the Kd in test [1], in test [2], in test [3], in test [4], in test [5] and in test [6] was > 30 µM (inactive) throughout. Moreover, the Kd (on Ephrin type-A receptor 1; in test [7]) was > 30 µM (inactive) in each case.

(Values after ChEMBL document CHEMBL3991601, “The target landscape of clinical kinase drugs” (Science, 2017).)
